According to the NIST ThermoML archive (doi:10.1021/acs.jced.8b01157):

Assay: mn = molality of the nth substance listed, in mol/kg
Conditions: 100 kPa, Liquid; for speed of sound: Frequency=3 MHz, Single path-length method; for mass density: Vibrating tube method

N.N.O=P(O)(O)O [diammonium hydrogen phosphate] + O
Conditions | mass density, 288.15 K [kg/m3] | mass density, 298.15 K [kg/m3] | mass density, 308.15 K [kg/m3] | mass density, 318.15 K [kg/m3] | speed of sound, 288.15 K [m/s] | speed of sound, 298.15 K [m/s] | speed of sound, 308.15 K [m/s] | speed of sound, 318.15 K [m/s]
m1 = 0.5 | 1032.61 | 1030.71 | 1026.1 | 1022.85 | 1517.7 | 1544.3 | 1564.8 | 1581.3
m1 = 1 | 1066.4 | 1064.03 | 1060.22 | 1055.59 | 1572 | 1597.9 | 1614.1 | 1628.3
m1 = 1.5 | 1097.53 | 1095.18 | 1090.11 | 1086.19 | 1629.6 | 1650.4 | 1664.4 | 1676.6

N.O=P(O)(O)O [ammonium dihydrogen phosphate] + O
Conditions | mass density, 288.15 K [kg/m3] | mass density, 298.15 K [kg/m3] | mass density, 308.15 K [kg/m3] | mass density, 318.15 K [kg/m3] | speed of sound, 288.15 K [m/s] | speed of sound, 298.15 K [m/s] | speed of sound, 308.15 K [m/s] | speed of sound, 318.15 K [m/s]
m1 = 0.5 | 1030 | 1026.45 | 1023.33 | 1019.74 | 1507.3 | 1534.9 | 1555.9 | 1570.9
m1 = 1 | 1057.62 | 1054.22 | 1050.98 | 1046.48 | 1544.3 | 1569.7 | 1588.9 | 1602.6
m1 = 1.5 | 1082.56 | 1079.6 | 1075.85 | 1071.76 | 1579 | 1602.4 | 1619.9 | 1631.1
